According to ChEMBL document CHEMBL4417631, “Oral peptide inhibitors of interleukin-23 receptor and their use to treat inflammatory bowel diseases” (2017):
*1 amine or outer side, *2 acyl side, *3 side chain or, on linkers, in order; H or OH if unused. Where a SMILES comes first, the peptide text is derived from it. Bridges are numbered along the chain shown (N, C = ends). [ ]: non-standard residue; d: D form. Abu(4-yl) = O=C([C@H](CC[*:3])N[*:1])[*:2]; 2Nal = N[C@@H](Cc1ccc2ccccc2c1)C(=O)O; AEF = NCCOc1ccc(C[C@H](N)C(=O)O)cc1; αMeK = C[C@](N)(CCCCN)C(=O)O; Aib = CC(C)(N)C(=O)O

Legend:
[1] = molecular target: T1, Interleukin-23 receptor (Homo sapiens, UniProt Q5VWK5); test: Inhibition of interleukin-23 receptor in human natural killer cells assessed as reduction in IL23/IL18-induced IFNgamma production incubated for 20 to 24 hrs by ELISA; format: cell-based
T1 sequence (Q5VWK5 whole entry): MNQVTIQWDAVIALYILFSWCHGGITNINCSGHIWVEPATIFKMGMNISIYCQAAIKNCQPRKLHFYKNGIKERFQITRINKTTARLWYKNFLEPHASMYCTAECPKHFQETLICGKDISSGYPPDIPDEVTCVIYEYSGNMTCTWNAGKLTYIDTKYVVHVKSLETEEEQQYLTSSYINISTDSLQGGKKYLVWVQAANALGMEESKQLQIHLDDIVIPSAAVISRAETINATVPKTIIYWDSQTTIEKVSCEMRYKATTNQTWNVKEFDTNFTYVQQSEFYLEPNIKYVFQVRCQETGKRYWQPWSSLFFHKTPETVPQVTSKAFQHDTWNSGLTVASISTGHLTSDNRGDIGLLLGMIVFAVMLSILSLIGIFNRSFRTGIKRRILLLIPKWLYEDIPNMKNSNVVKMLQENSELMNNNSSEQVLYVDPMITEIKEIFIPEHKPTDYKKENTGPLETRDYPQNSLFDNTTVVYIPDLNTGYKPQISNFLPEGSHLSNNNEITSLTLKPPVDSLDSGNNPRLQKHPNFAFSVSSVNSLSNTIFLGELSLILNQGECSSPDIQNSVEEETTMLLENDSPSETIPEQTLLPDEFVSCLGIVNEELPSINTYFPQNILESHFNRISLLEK

[2] = Half life in simulated gastric fluid at 20 uM by LC-MS/MS analysis; format: ADME
[3] = Half life in simulated intestinal fluid at 20 uM by LC-MS/MS analysis; format: ADME
[4] = Inhibition of interleukin-23 binding to rat interleukin-23 receptor incubated for 2 hrs by competitive binding ELISA
[5] = molecular target: T1, Interleukin-23 receptor; test: Inhibition of interleukin-23 receptor in human DB cells assessed as reduction in IL-23-stimulated STAT3 phosphorylation incubated for 30 mins by HTRF assay; format: cell-based
[6] = molecular target: T1, Interleukin-23 receptor; test: Inhibition of interleukin-23 binding to human interleukin-23 receptor incubated for 2 hrs by competitive binding ELISA
[7] = Half life in DTT at 50 uM up up to 120 mins by reverse phase HPLC and UV detection based assay; format: physicochemical

SMILES | IC50 [1] | half-life at 20 µM [2] | half-life at 20 µM [3] | IC50 [4] | IC50 [5] | IC50 [6] | half-life at 50 µM [7]
CC(=O)NCCCC[C@H](NC(=O)[C@](C)(CC(C)C)NC(=O)[C@H](Cc1ccc2ccccc2c1)NC(=O)[C@H](Cc1ccc(OCCN)cc1)NC(=O)[C@@H](NC(=O)[C@H](CCC(N)=O)NC(=O)[C@H](Cc1c[nH]c2ccccc12)NC(=O)[C@@H](NC(=O)[C@H](CCC(N)=O)NC(=O)[C@@H](NC(C)=O)C(C)(C)S)[C@@H](C)O)C(C)(C)S)C(=O)N[C@@H](CC(N)=O)C(=O)N[C@@H](CC(N)=O)C(N)=O | < 10 nM | 3 to 6 h | 2 to 3 h | < 10 nM | < 10 nM | < 10 nM | –
CC(=O)N[C@H](C(=O)N[C@@H](CCC(N)=O)C(=O)N[C@H](C(=O)N[C@@H](Cc1c[nH]c2ccccc12)C(=O)N[C@@H](CCC(N)=O)C(=O)N[C@H](C(=O)N[C@@H](Cc1ccc(O)cc1)C(=O)N[C@@H](Cc1c[nH]c2ccccc12)C(=O)N[C@@H](CCC(C)C)C(=O)N[C@@H](CCC(=O)O)C(=O)N[C@@H](CC(N)=O)C(=O)NCC(N)=O)C(C)(C)S)[C@@H](C)O)C(C)(C)S | – | – | < 1 h | – | – | 100 to 1000 nM | > 2 h
CC(=O)N[C@@H](CS)C(=O)N[C@@H](CCCNC(=N)N)C(=O)N[C@H](C(=O)N[C@@H](Cc1c[nH]c2ccccc12)C(=O)N[C@@H](CCC(=O)O)C(=O)N[C@@H](CS)C(=O)N[C@@H](Cc1ccc(O)cc1)C(=O)N[C@@H](Cc1c[nH]c2ccccc12)C(=O)N[C@@H](Cc1cnc[nH]1)C(=O)N[C@@H](CCC(=O)O)C(=O)N[C@@H](Cc1ccccc1)C(=O)NCC(N)=O)[C@@H](C)O (Ac-CRTWECYWHEFG-NH2) | – | – | – | – | – | < 500 nM | < 0.167 h
CC(=O)N[C@H]1CCSC[C@@H](C(=O)N[C@@H](Cc2ccc(OCCN)cc2)C(=O)N[C@@H](Cc2ccc3ccccc3c2)C(=O)NC(C)(C)C(=O)N[C@@H](CCC(N)=O)C(=O)N[C@@H](CC(N)=O)C(=O)NCC(N)=O)NC(=O)[C@H](CCC(N)=O)NC(=O)[C@H](Cc2c[nH]c3ccccc23)NC(=O)[C@H]([C@@H](C)O)NC(=O)[C@H](CCC(N)=O)NC1=O (Ac-[Abu(4-yl)]QTWQC[AEF][2Nal][Aib]QNG-NH2; thioether 1-6) | < 25 nM | 3 to 6 h | 2 to 3 h | 10 to 25 nM | < 10 nM | < 10 nM | –
CC(=O)NCCCC[C@H](NC(=O)[C@@](C)(NC(=O)[C@H](Cc1ccc2ccccc2c1)NC(=O)[C@H](Cc1ccc(OCCN)cc1)NC(=O)[C@@H]1CSCC[C@H](NC(C)=O)C(=O)N[C@@H](CCC(N)=O)C(=O)N[C@@H]([C@@H](C)O)C(=O)N[C@@H](Cc2c[nH]c3ccccc23)C(=O)N[C@@H](CCC(N)=O)C(=O)N1)C(C)C)C(=O)N[C@@H](CC(N)=O)C(=O)NCC(N)=O | < 25 nM | 1 to 2 h | 2 to 3 h | < 10 nM | < 10 nM | < 10 nM | –
CC(=O)NCCCC[C@H](NC(=O)[C@](C)(CCCCNC(C)=O)NC(=O)[C@H](Cc1ccc2ccccc2c1)NC(=O)[C@H](Cc1ccc(OCCNC(C)=O)cc1)NC(=O)[C@@H]1CSCC[C@H](NC(C)=O)C(=O)N[C@@H](CCC(N)=O)C(=O)N[C@@H]([C@@H](C)O)C(=O)N[C@@H](Cc2c[nH]c3ccccc23)C(=O)N[C@@H](CCC(N)=O)C(=O)N1)C(=O)N[C@@H](CC(N)=O)C(=O)NCC(N)=O | < 25 nM | < 1 h | 3 to 6 h | < 10 nM | < 10 nM | < 10 nM | –
CC(=O)N[C@H](C(=O)N[C@@H](CCC(N)=O)C(=O)N[C@H](C(=O)N[C@@H](Cc1c[nH]c2ccccc12)C(=O)N[C@@H](CCC(N)=O)C(=O)N[C@H](C(=O)N[C@@H](Cc1ccc(O)cc1)C(=O)N[C@@H](Cc1c[nH]c2ccccc12)C(=O)N[C@@](C)(CC(C)C)C(=O)N[C@@H](CCC(=O)O)C(=O)N[C@@H](CC(N)=O)C(=O)NCC(N)=O)C(C)(C)S)[C@@H](C)O)C(C)(C)S | – | – | 3 to 6 h | 100 to 1000 nM | 10 to 25 nM | 25 to 100 nM | > 2 h
CC(=O)N[C@H]1CCSC[C@@H](C(=O)N[C@@H](Cc2ccc(OCCN)cc2)C(=O)N[C@@H](Cc2ccc3ccccc3c2)C(=O)NC2(C(=O)N[C@@H](CCC(=O)O)C(=O)N[C@@H](CC(N)=O)C(=O)N[C@@H](CC(N)=O)C(N)=O)CCOCC2)NC(=O)[C@H](CCC(N)=O)NC(=O)[C@H](Cc2c[nH]c3ccccc23)NC(=O)[C@H]([C@@H](C)O)NC(=O)[C@H](CCC(N)=O)NC1=O | – | – | – | – | – | – | > 2 h
CC(=O)NCCCC[C@H](NC(=O)[C@@](C)(NC(=O)[C@H](Cc1ccc2ccccc2c1)NC(=O)[C@H](Cc1ccc(C(N)=O)cc1)NC(=O)[C@@H](NC(=O)[C@H](CCC(N)=O)NC(=O)[C@H](Cc1c[nH]c2ccccc12)NC(=O)[C@@H](NC(=O)[C@H](CCC(N)=O)NC(=O)[C@@H](NC(C)=O)C(C)(C)S)[C@@H](C)O)C(C)(C)S)C(C)C)C(=O)N[C@@H](CC(N)=O)C(=O)N[C@@H](CC(N)=O)C(N)=O | 10 to 25 nM | 3 to 6 h | > 6 h | 10 to 25 nM | < 10 nM | – | –
CC(=O)NCCCC[C@H](NC(=O)C(C)(C)NC(=O)[C@H](Cc1ccc2ccccc2c1)NC(=O)[C@H](Cc1ccc(OCCN)cc1)NC(=O)[C@@H](NC(=O)[C@H](CCC(N)=O)NC(=O)[C@H](Cc1c[nH]c2ccccc12)NC(=O)[C@@H](NC(=O)[C@H](CC(N)=O)NC(=O)[C@@H](NC(C)=O)C(C)(C)S)[C@@H](C)O)C(C)(C)S)C(=O)N[C@@H](CC(N)=O)C(=O)N[C@@H](CC(N)=O)C(N)=O | < 10 nM | > 6 h | > 6 h | < 10 nM | < 10 nM | < 10 nM | –
CC(=O)N[C@@H](CS)C(=O)N[C@@H](CCC(N)=O)C(=O)N[C@H](C(=O)N[C@@H](Cc1c[nH]c2ccccc12)C(=O)N[C@@H](CCC(N)=O)C(=O)N[C@@H](CS)C(=O)N[C@@H](Cc1ccc(O)cc1)C(=O)N[C@@H](Cc1c[nH]c2ccccc12)C(=O)N[C@@H](CCC(C)C)C(=O)N[C@@H](CCC(=O)O)C(=O)N[C@@H](CC(N)=O)C(=O)NCC(N)=O)[C@@H](C)O | – | – | – | – | – | – | 0.167 to 2 h
CC(=O)N[C@@H](CS)C(=O)N[C@@H](C)C(=O)N[C@@H](CC(=O)O)C(=O)N[C@@H](Cc1c[nH]c2ccccc12)C(=O)N[C@H](C(=O)N[C@@H](Cc1c[nH]c2ccccc12)C(=O)N[C@@H](CS)C(=O)N[C@@H](Cc1ccc(O)cc1)C(=O)N[C@@H](Cc1c[nH]c2ccccc12)C(=O)N[C@@H](Cc1cnc[nH]1)C(=O)N[C@H](C(=O)N[C@@H](Cc1ccccc1)C(=O)NCC(=O)N[C@@H](C)C(=O)N1CC[C@H]1C(=O)N[C@H](CCCCN)C(N)=O)[C@@H](C)O)C(C)C | – | – | – | – | – | – | 0.167 to 2 h
CC(=O)NCCCC[C@H](NC(=O)C(C)(C)NC(=O)[C@H](Cc1ccc2ccccc2c1)NC(=O)[C@H](Cc1ccc(OCCN)cc1)NC(=O)[C@@H](NC(=O)[C@H](CCC(N)=O)NC(=O)[C@H](Cc1c[nH]c2ccccc12)NC(=O)[C@@H](NC(=O)[C@H](CC(N)=O)NC(=O)[C@@H](NC(C)=O)C(C)(C)S)[C@@H](C)O)C(C)(C)S)C(=O)N[C@@H](CC(N)=O)C(=O)NCCC(N)=O | < 10 nM | > 6 h | > 6 h | 10 to 25 nM | < 10 nM | – | –
CC(=O)NCCCC[C@H](NC(=O)C(C)(C)NC(=O)[C@H](Cc1ccc2ccccc2c1)NC(=O)[C@H](Cc1ccc(OCCN)cc1)NC(=O)[C@@H]1CSCC[C@H](NC(C)=O)C(=O)N[C@@H](CCC(N)=O)C(=O)N[C@@H]([C@@H](C)O)C(=O)N[C@@H](Cc2c[nH]c3ccccc23)C(=O)N[C@@H](CCC(N)=O)C(=O)N1)C(=O)N[C@@H](CC(N)=O)C(=O)N[C@@H](C)C(N)=O | < 25 nM | < 1 h | 1 to 2 h | 10 to 25 nM | < 10 nM | < 10 nM | –
CC(=O)N[C@H]1CCSC[C@@H](C(=O)N[C@@H](Cc2ccc(OCCN)cc2)C(=O)N[C@@H](Cc2ccc3ccccc3c2)C(=O)N[C@@](C)(CCCCN)C(=O)N[C@@H](CCCCNC(=O)CC(C)C)C(=O)N[C@@H](CC(N)=O)C(=O)NCC(N)=O)NC(=O)[C@H](CCC(N)=O)NC(=O)[C@H](Cc2c[nH]c3ccccc23)NC(=O)[C@H]([C@@H](C)O)NC(=O)[C@H](CCC(N)=O)NC1=O | < 25 nM | > 6 h | > 6 h | 10 to 25 nM | < 10 nM | < 10 nM | –
CC(=O)N[C@H]1CCSC[C@@H](C(=O)N[C@@H](Cc2ccc(OCCN)cc2)C(=O)N[C@@H](Cc2ccc3ccccc3c2)C(=O)N[C@@](C)(CCCCN)C(=O)N[C@@H](CCC(=O)O)C(=O)N[C@@H](CC(N)=O)C(=O)N[C@@H](CCC(N)=O)C(N)=O)NC(=O)[C@H](CCC(N)=O)NC(=O)[C@H](Cc2c[nH]c3ccccc23)NC(=O)[C@H]([C@@H](C)O)NC(=O)[C@H](CCC(N)=O)NC1=O (Ac-[Abu(4-yl)]QTWQC[AEF][2Nal][αMeK]ENQ-NH2; thioether 1-6) | < 25 nM | 3 to 6 h | 3 to 6 h | < 10 nM | < 10 nM | < 10 nM | –
